Read-outs that look alike come from different tables or passages of the source.
How the values were obtained:
[1] = molecular target: GLP-1R (Homo sapiens, UniProt P43220); test: GLP-1R activation: cAMP increase in CHO cells stably expressing GLP-1R; assay type: cell-based
[2] = Microsomal stability, human liver microsomes (predicted hepatic clearance); conditions: predicted from in vitro microsomal stability data
[3] = cAMP increase, CHO cells stably expressing GLP-1R, 10 point dose response, 30 minutes incubation, read-out: EC50

Sequence of GLP-1R (P43220 24-463): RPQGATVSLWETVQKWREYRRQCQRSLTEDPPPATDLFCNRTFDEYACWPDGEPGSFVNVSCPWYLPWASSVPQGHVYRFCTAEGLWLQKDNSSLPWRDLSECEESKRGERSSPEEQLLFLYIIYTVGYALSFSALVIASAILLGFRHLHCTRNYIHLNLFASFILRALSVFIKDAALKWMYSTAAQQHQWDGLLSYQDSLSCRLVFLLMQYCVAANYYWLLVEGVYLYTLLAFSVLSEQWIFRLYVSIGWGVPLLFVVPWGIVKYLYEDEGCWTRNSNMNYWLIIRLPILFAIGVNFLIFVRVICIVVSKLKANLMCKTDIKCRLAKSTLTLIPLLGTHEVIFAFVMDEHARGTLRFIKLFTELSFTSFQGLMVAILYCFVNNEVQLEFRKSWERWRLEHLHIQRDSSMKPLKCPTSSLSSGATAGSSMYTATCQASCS

EC50 [1, 3] [nM] | Predicted Hepatic Clearance (Pred. Cl.) [2] [L/h/kg] | Structure (SMILES) | EC50 ([1]; EC50 (nM)) [nM]
311 | 0.67 | CC1(C)CC(Cn2c(Cc3ccc(-c4cccc(OCc5ccc(C#N)cc5F)n4)cc3F)nc3ccc(C(=O)O)cc32)O1 (single isomer, unassigned) [Example 904, 2-(4-(6-((4-cyano-2-fluorobenzyl)oxy)pyridin-2-yl)-2-fluorobenzyl)-1-((4,4-dimethyloxetan-2-yl)methyl)-1H-benzo[d]imidazole-6-carboxylic acid] | –
30.9 | 0.26 | CC1(C)CC(Cn2c(Cc3ccc(-c4cccc(OCc5ccc(C#N)cc5F)n4)cc3F)nc3ccc(C(=O)O)cc32)O1 (single isomer, unassigned) [Example 905, 2-(4-(6-((4-cyano-2-fluorobenzyl)oxy)pyridin-2-yl)-2-fluorobenzyl)-1-((4,4-dimethyloxetan-2-yl)methyl)-1H-benzo[d]imidazole-6-carboxylic acid] | –
25.4 | 0.2 | COCCn1c(Cc2ccc(-c3cccc(OCc4ccc(C#N)cc4F)n3)cc2)nc2ccc(C(=O)O)cc21 [Example 1, 2-(4-(6-((4-Cyano-2-fluorobenzyl)oxy)pyridin-2-yl)benzyl)-1-(2-methoxyethyl)-1H-benzo[d]imidazole-6-carboxylic acid] | –
2.3 | 0.14 | COCCn1c(Cc2ccc(-c3cccc(OCc4ccc(C#N)cc4F)n3)cc2F)nc2ccc(C(=O)O)cc21 [Example 2, 2-(4-(6-((4-cyano-2-fluorobenzyl)oxy)pyridin-2-yl)-2-fluorobenzyl)-1-(2-methoxyethyl)-1H-benzo[d]imidazole-6-carboxylic acid] | –
1570 | 0.82 | COCCn1c(Cc2ccc(-c3cccc(OCc4ccc(C#N)cc4F)n3)s2)nc2ccc(C(=O)O)cc21 [Example 4, 2-((5-(6-((4-cyano-2-fluorobenzyl)oxy)pyridin-2-yl)thiophen-2-yl)methyl)-1-(2-methoxyethyl)-1H-benzo[d]imidazole-6-carboxylic acid] | –
56.1 | 0.21 | COCCn1c(Cc2ccc(-c3cccc(OCc4ccc(C#N)cc4F)c3)cc2F)nc2ccc(C(=O)O)cc21 [Example 6, 2-((3′-((4-cyano-2-fluorobenzyl)oxy)-3-fluoro-[1,1′-biphenyl]-4-yl)methyl)-1-(2-methoxyethyl)-1H-benzo[d]imidazole-6-carboxylic acid] | –
6.34 | 0.31 | N#Cc1ccc(COc2cccc(-c3ccc(Cc4nc5ccc(C(=O)O)cc5n4Cc4cncn4C4CC4)c(F)c3)n2)c(F)c1 [Example 7, 2-(4-(6-((4-cyano-2-fluorobenzyl)oxy)pyridin-2-yl)-2-fluorobenzyl)-1-((1-cyclopropyl-1H-imidazol-5-yl)methyl)-1H-benzo[d]imidazole-6-carboxylic acid] | –
26.4 | 0.26 | N#Cc1ccc(COc2cccc(-c3ccc(Cc4nc5ccc(C(=O)O)cc5n4Cc4cncn4C4CC4)c(F)c3)c2)c(F)c1 [Example 8, 2-((3′-((4-cyano-2-fluorobenzyl)oxy)-3-fluoro-[1,1′-biphenyl]-4-yl)methyl)-1-((1-cyclopropyl-1H-imidazol-5-yl)methyl)-1H-benzo[d]imidazole-6-carboxylic acid] | –
1.75 | <0.11 | CC1(Cn2c(Cc3ccc(-c4cccc(OCc5ccc(C#N)cc5F)n4)cc3F)nc3ccc(C(=O)O)cc32)CC1 [Example 9, 2-(4-(6-((4-cyano-2-fluorobenzyl)oxy)pyridin-2-yl)-2-fluorobenzyl)-1-((1-methylcyclopropyl)methyl)-1H-benzo[d]imidazole-6-carboxylic acid] | –
0.57 | 0.17 | N#Cc1ccc(COc2cccc(-c3ccc(Cc4nc5ccc(C(=O)O)cc5n4CC4(CF)CC4)c(F)c3)n2)c(F)c1 [Example 10, 2-(4-(6-((4-cyano-2-fluorobenzyl)oxy)pyridin-2-yl)-2-fluorobenzyl)-1-((1-(fluoromethyl)cyclopropyl)methyl)-1H-benzo[d]imidazole-6-carboxylic acid] | –
2.7 | 0.25 | N#Cc1ccc(COc2cccc(-c3ccc(Cc4nc5ccc(C(=O)O)cc5n4CC4(C#N)CC4)c(F)c3)n2)c(F)c1 [Example 13, 2-(4-(6-((4-cyano-2-fluorobenzyl)oxy)pyridin-2-yl)-2-fluorobenzyl)-1-((1-cyanocyclopropyl)methyl)-1H-benzo[d]imidazole-6-carboxylic acid] | –
3.14 | 0.3 | CC(C)(C#N)Cn1c(Cc2ccc(-c3cccc(OCc4ccc(C#N)cc4F)n3)cc2F)nc2ccc(C(=O)O)cc21 [Example 14, 2-(4-(6-((4-cyano-2-fluorobenzyl)oxy)pyridin-2-yl)-2-fluorobenzyl)-1-(2-cyano-2-methylpropyl)-1H-benzo[d]imidazole-6-carboxylic acid] | –
0.55 | 0.33 | N#CCC1(Cn2c(Cc3ccc(-c4cccc(OCc5ccc(C#N)cc5F)n4)cc3F)nc3ccc(C(=O)O)cc32)CC1 [Example 16, 2-(4-(6-((4-cyano-2-fluorobenzyl)oxy)pyridin-2-yl)-2-fluorobenzyl)-1-((1-(cyanomethyl)cyclopropyl)methyl)-1H-benzo[d]imidazole-6-carboxylic acid] | –
11 | 0.16 | N#Cc1ccc(COc2cccc(-c3ccc(Cc4nc5ccc(C(=O)O)cc5n4CC4CCS4(=O)=O)c(F)c3)n2)c(F)c1 (stereo not drawn) [Example 17, 2-(4-(6-((4-cyano-2-fluorobenzyl)oxy)pyridin-2-yl)-2-fluorobenzyl)-1-((1,1-dioxidothietan-2-yl)methyl)-1H-benzo[d]imidazole-6-carboxylic acid] | –
3.6 | 0.15 | CC1(Cn2c(Cc3ccc(-c4cccc(OCc5ccc(C#N)cc5F)n4)cc3F)nc3ccc(C(=O)O)nc32)CC1 [Example 18, 2-(4-(6-((4-cyano-2-fluorobenzyl)oxy)pyridin-2-yl)-2-fluorobenzyl)-3-((1-methylcyclopropyl)methyl)-3H-imidazo[4,5-b]pyridine-5-carboxylic acid] | –
0.78 | 0.18 | COCCn1c(Cc2ccc(-c3cccc(OCc4ccc(C#N)cc4F)n3)cc2C#N)nc2ccc(C(=O)O)cc21 [Example 22, 2-(2-cyano-4-(6-((4-cyano-2-fluorobenzyl)oxy)pyridin-2-yl)benzyl)-1-(2-methoxyethyl)-1H-benzo[d]imidazole-6-carboxylic acid] | –
25.9 | 0.44 | COCCn1c(Cc2ccc(-c3nccc(OCc4ccc(C#N)cc4F)n3)cc2F)nc2ccc(C(=O)O)cc21 [Example 25, 2-{[4-[4-[(4-cyano-2-fluoro-phenyl)methoxy]pyrimidin-2-yl]-2-fluoro-phenyl]methyl}-3-(2-methoxyethyl)benzimidazole-5-carboxylic acid] | –
115 | 0.28 | COCCn1c(Cc2ccc(-c3csc(OCc4ccc(C#N)cc4F)n3)cc2F)nc2ccc(C(=O)O)cc21 [Example 26, 2-(4-(2-((4-cyano-2-fluorobenzyl)oxy)thiazol-4-yl)-2-fluorobenzyl)-1-(2-methoxyethyl)-1H-benzo[d]imidazole-6-carboxylic acid] | –
78 | 0.15 | COCCn1c(Cc2ccc(-c3cc(F)cc(OCc4ccc(C#N)cc4F)c3)cc2F)nc2ccc(C(=O)O)cc21 [Example 27, 2-((3′-((4-cyano-2-fluorobenzyl)oxy)-3,5′-difluoro-[1,1′-biphenyl]-4-yl)methyl)-1-(2-methoxyethyl)-1H-benzop[d]imidazole-6-carboxylic acid] | –
94 | 0.19 | COCCn1c(Cc2ccc(-c3cc(OCc4ccc(C#N)cc4F)ccc3F)cc2F)nc2ccc(C(=O)O)cc21 [Example 28, 2-((5′-((4-cyano-2-fluorobenzyl)oxy)-2′,3-difluoro-[1,1′-biphenyl]-4-yl)methyl)-1-(2-methoxyethyl)-1H-benzo[d]imidazole-6-carboxylic acid] | –
57 | 0.31 | COCCn1c(Cc2ccc(-c3cc(C#N)cc(OCc4ccc(C#N)cc4F)c3)cc2F)nc2ccc(C(=O)O)cc21 [Example 29, 2-((3′-cyano-5′-((4-cyano-2-fluorobenzyl)oxy)-3-fluoro-[1,1′-biphenyl]-4-yl)methyl)-1-(2-methoxyethyl)-1H-benzo[d]imidazole-6-carboxylic acid] | –

Structure (SMILES) | EC50 [1, 3] [nM] | Predicted Hepatic Clearance (Pred. Cl.) [2] [L/h/kg] | EC50 ([1]; EC50 (nM)) [nM]
COCCn1c(Cc2ccc(-c3cccc(OCc4ccc(C#N)cc4F)n3)c(F)c2)nc2ccc(C(=O)O)cc21 [Example 3, 2-(4-(6-((4-cyano-2-fluorobenzyl)oxy)pyridin-2-yl)-3-fluorobenzyl)-1-(2-methoxyethyl)-1H-benzo[d]imidazole-6-carboxylic acid] | – | 0.23 | 10.3
COCCn1c(Cc2ccc(-c3cccc(OCc4ccc(C#N)cc4F)n3)c(C)c2)nc2ccc(C(=O)O)cc21 [Example 20, 2-{[4-[6-[(4-cyano-2-fluoro-phenyl)methoxy]-2-pyridyl]-3-methyl-phenyl]methyl}-3-(2-methoxyethyl)benzimidazole-5-carboxylic acid] | – | 0.14 | 24.1
COCCn1c(Cc2ccc(-c3cccc(OCc4ccc(C#N)cc4F)n3)c(C)c2)nc2ccc(C(=O)O)cc21 [Example 21, 2-(4-(6-((4-cyano-2-fluorobenzyl)oxy)pyridin-2-yl)-3-methylbenzyl)-1-(2-methoxyethyl)-1H-benzo[d]imidazole-6-carboxylic acid] | – | <0.11 | 70.9

Reference: patent US11702404B2, “GLP-1R modulating compounds” (priority 2019, dated 2023)
